From the NIST ThermoML archive (doi:10.1021/je300388b)

Test: xn = mol fraction of the nth substance listed
Conditions: Liquid

CCCCCCCCCC [decane] + O=C=O
Conditions | mass density [kg/m3]
303.04 K, 8020 kPa, x2 = 0.869 | 798.45
303.15 K, 9990 kPa, x2 = 0.4698 | 756.27
303.15 K, 11990 kPa, x2 = 0.4698 | 758.43
303.15 K, 14000 kPa, x2 = 0.4698 | 760.53
303.15 K, 15980 kPa, x2 = 0.4698 | 762.54
303.15 K, 17990 kPa, x2 = 0.4698 | 764.51
303.15 K, 19010 kPa, x2 = 0.2361 | 748.64
303.15 K, 19010 kPa, x2 = 0.4698 | 765.49
303.16 K, 7980 kPa, x2 = 0.2361 | 740.1
303.16 K, 8020 kPa, x2 = 0.4698 | 754.05
303.16 K, 9970 kPa, x2 = 0.2361 | 741.73
303.16 K, 12020 kPa, x2 = 0.2361 | 743.35
303.16 K, 16020 kPa, x2 = 0.2361 | 746.43
303.17 K, 14020 kPa, x2 = 0.2361 | 744.91
303.17 K, 18020 kPa, x2 = 0.2361 | 747.92
303.31 K, 10030 kPa, x2 = 0.869 | 807.43
303.31 K, 14030 kPa, x2 = 0.869 | 824.12
303.31 K, 18050 kPa, x2 = 0.869 | 837.96
303.36 K, 12020 kPa, x2 = 0.869 | 816.02
303.37 K, 16020 kPa, x2 = 0.869 | 831.09
313 K, 7980 kPa, x2 = 0.71 | 763.24
313 K, 9940 kPa, x2 = 0.71 | 767.44
313 K, 13970 kPa, x2 = 0.71 | 775.3
313.01 K, 11690 kPa, x2 = 0.71 | 770.91
313.01 K, 18020 kPa, x2 = 0.71 | 782.43
313.03 K, 16020 kPa, x2 = 0.71 | 778.96
313.06 K, 13970 kPa, x2 = 0.4698 | 750.5
313.07 K, 15990 kPa, x2 = 0.4698 | 752.76
313.09 K, 17990 kPa, x2 = 0.4698 | 754.91
313.09 K, 19000 kPa, x2 = 0.4698 | 755.97
313.1 K, 8010 kPa, x2 = 0.4698 | 743.23
313.11 K, 11990 kPa, x2 = 0.4698 | 748.15
313.12 K, 10010 kPa, x2 = 0.4698 | 745.74
313.13 K, 16010 kPa, x2 = 0.2361 | 738.82
313.13 K, 18010 kPa, x2 = 0.2361 | 740.41
313.14 K, 10010 kPa, x2 = 0.2361 | 733.81
313.14 K, 19020 kPa, x2 = 0.2361 | 741.18
313.15 K, 7990 kPa, x2 = 0.2361 | 732.05
313.15 K, 14010 kPa, x2 = 0.2361 | 737.19
313.16 K, 12000 kPa, x2 = 0.2361 | 735.5
313.23 K, 18020 kPa, x2 = 0.869 | 812.48
313.27 K, 10000 kPa, x2 = 0.869 | 776.26
313.31 K, 14000 kPa, x2 = 0.869 | 796.68
313.33 K, 12000 kPa, x2 = 0.869 | 787.12
313.36 K, 7990 kPa, x2 = 0.869 | 762.46
313.37 K, 16040 kPa, x2 = 0.869 | 804.9
323.02 K, 8000 kPa, x2 = 0.71 | 747.45
323.02 K, 18230 kPa, x2 = 0.71 | 769.63
323.09 K, 14030 kPa, x2 = 0.71 | 761.43
323.11 K, 16040 kPa, x2 = 0.71 | 765.46
323.12 K, 9940 kPa, x2 = 0.71 | 752.26
323.13 K, 18030 kPa, x2 = 0.2361 | 732.88
323.15 K, 8010 kPa, x2 = 0.4698 | 732.04
323.15 K, 9980 kPa, x2 = 0.4698 | 734.86
323.15 K, 11970 kPa, x2 = 0.71 | 756.86
323.15 K, 12030 kPa, x2 = 0.2361 | 727.66
323.15 K, 16020 kPa, x2 = 0.2361 | 731.17
323.15 K, 18000 kPa, x2 = 0.4698 | 745.11
323.15 K, 19000 kPa, x2 = 0.4698 | 746.27
323.15 K, 19020 kPa, x2 = 0.2361 | 733.69
323.16 K, 14030 kPa, x2 = 0.2361 | 729.45
323.17 K, 12020 kPa, x2 = 0.4698 | 737.61
323.17 K, 15980 kPa, x2 = 0.4698 | 742.66
323.18 K, 8030 kPa, x2 = 0.2361 | 723.85
323.18 K, 9970 kPa, x2 = 0.2361 | 725.74
323.19 K, 13990 kPa, x2 = 0.4698 | 740.16
323.29 K, 16020 kPa, x2 = 0.869 | 778.27
323.3 K, 10010 kPa, x2 = 0.869 | 740.74
323.3 K, 18080 kPa, x2 = 0.869 | 787.62
323.34 K, 11990 kPa, x2 = 0.869 | 755.53
323.38 K, 14000 kPa, x2 = 0.869 | 767.56
333.09 K, 10020 kPa, x2 = 0.71 | 736.44
333.1 K, 11960 kPa, x2 = 0.71 | 741.69
333.12 K, 8090 kPa, x2 = 0.71 | 730.25
333.12 K, 17970 kPa, x2 = 0.4698 | 735.23
333.12 K, 18050 kPa, x2 = 0.71 | 756.13
333.13 K, 8020 kPa, x2 = 0.2361 | 715.58
333.13 K, 11990 kPa, x2 = 0.4698 | 726.89
333.13 K, 14000 kPa, x2 = 0.4698 | 729.82
333.13 K, 14030 kPa, x2 = 0.2361 | 721.58
333.13 K, 14050 kPa, x2 = 0.71 | 746.85
333.13 K, 15960 kPa, x2 = 0.4698 | 732.55
333.13 K, 16020 kPa, x2 = 0.2361 | 723.45
333.13 K, 19020 kPa, x2 = 0.2361 | 726.15
333.14 K, 9930 kPa, x2 = 0.4698 | 723.71
333.15 K, 10020 kPa, x2 = 0.2361 | 717.65
333.15 K, 12030 kPa, x2 = 0.2361 | 719.64
333.15 K, 16040 kPa, x2 = 0.71 | 751.6
333.15 K, 18020 kPa, x2 = 0.2361 | 725.24
333.19 K, 7980 kPa, x2 = 0.4698 | 720.48
333.19 K, 15930 kPa, x2 = 0.869 | 754.21
333.2 K, 18080 kPa, x2 = 0.869 | 762.91
333.22 K, 14070 kPa, x2 = 0.869 | 745.06
343.02 K, 10240 kPa, x2 = 0.71 | 720.54
343.02 K, 12280 kPa, x2 = 0.71 | 726.49
343.1 K, 12070 kPa, x2 = 0.4698 | 716.06
343.11 K, 16090 kPa, x2 = 0.4698 | 722.46
343.11 K, 19120 kPa, x2 = 0.4698 | 726.87
343.12 K, 14000 kPa, x2 = 0.71 | 730.99
343.13 K, 8070 kPa, x2 = 0.4698 | 708.84
343.13 K, 16030 kPa, x2 = 0.71 | 736.12
343.13 K, 18000 kPa, x2 = 0.71 | 741.08
343.14 K, 18000 kPa, x2 = 0.4698 | 725.25
343.16 K, 18050 kPa, x2 = 0.869 | 743.75
343.18 K, 9930 kPa, x2 = 0.4698 | 712.24
343.19 K, 13920 kPa, x2 = 0.4698 | 719
343.21 K, 12010 kPa, x2 = 0.2361 | 711.78
343.23 K, 16060 kPa, x2 = 0.869 | 735.77
343.23 K, 18020 kPa, x2 = 0.2361 | 718.14
343.24 K, 14010 kPa, x2 = 0.2361 | 713.97
343.24 K, 16010 kPa, x2 = 0.2361 | 716.11
343.25 K, 8010 kPa, x2 = 0.2361 | 707.17
343.25 K, 10010 kPa, x2 = 0.2361 | 709.51
343.26 K, 19020 kPa, x2 = 0.2361 | 719.17
352.97 K, 9880 kPa, x2 = 0.71 | 706.61
352.99 K, 18040 kPa, x2 = 0.869 | 719.9
353.01 K, 11990 kPa, x2 = 0.71 | 711.36
353.06 K, 16040 kPa, x2 = 0.4698 | 711.93
353.06 K, 19020 kPa, x2 = 0.2361 | 711.31
353.09 K, 14010 kPa, x2 = 0.4698 | 708.37
353.09 K, 18080 kPa, x2 = 0.4698 | 715.25
353.1 K, 12020 kPa, x2 = 0.2361 | 703.37
353.11 K, 10030 kPa, x2 = 0.2361 | 700.96
353.11 K, 14010 kPa, x2 = 0.2361 | 705.7
353.12 K, 10090 kPa, x2 = 0.4698 | 700.82
353.12 K, 17940 kPa, x2 = 0.71 | 725.1
353.12 K, 18020 kPa, x2 = 0.2361 | 710.21
353.12 K, 19060 kPa, x2 = 0.4698 | 716.77
353.13 K, 8010 kPa, x2 = 0.2361 | 698.4
353.13 K, 8040 kPa, x2 = 0.4698 | 696.42
353.13 K, 12050 kPa, x2 = 0.4698 | 704.69
353.13 K, 16020 kPa, x2 = 0.2361 | 707.98
353.14 K, 15980 kPa, x2 = 0.71 | 719.92
353.26 K, 14130 kPa, x2 = 0.71 | 715.78
362.92 K, 12050 kPa, x2 = 0.71 | 698.95
362.99 K, 18090 kPa, x2 = 0.71 | 712.19
363.08 K, 16050 kPa, x2 = 0.71 | 707.18
363.28 K, 14100 kPa, x2 = 0.71 | 702.89
